Where two headings read alike, the source gives them in different places.
Columns and labels:
SK-Br3 (ATCC: HTB-30) = experiment: Test of cancer cell growth inhibition (SRB), SK-Br3; conditions: read-out: IC50 SK-Br-3
[1] = molecular target: EGFR (EGFR type 1 kinase) (Homo sapiens, UniProt P00533); experiment: Inhibition of EGFR enzyme (fluorescence polarization kinase assay)
Description: 10 μl of EGFR (EGFR type 1 kinase) was added to each well of a 96-well microplate.
SW-620 (ATCC: CCL-227) = experiment: Test of cancer cell growth inhibition (SRB), SW-620; conditions: Homo sapiens, SW-620, 72 h, read-out: IC50 SW-620
A431 (ATCC: CRL-1555) = experiment: Test of cancer cell growth inhibition (SRB), A431; conditions: read-out: IC50 A431

EGFR (EGFR type 1 kinase), sequence (P00533 25-1210, species assumed): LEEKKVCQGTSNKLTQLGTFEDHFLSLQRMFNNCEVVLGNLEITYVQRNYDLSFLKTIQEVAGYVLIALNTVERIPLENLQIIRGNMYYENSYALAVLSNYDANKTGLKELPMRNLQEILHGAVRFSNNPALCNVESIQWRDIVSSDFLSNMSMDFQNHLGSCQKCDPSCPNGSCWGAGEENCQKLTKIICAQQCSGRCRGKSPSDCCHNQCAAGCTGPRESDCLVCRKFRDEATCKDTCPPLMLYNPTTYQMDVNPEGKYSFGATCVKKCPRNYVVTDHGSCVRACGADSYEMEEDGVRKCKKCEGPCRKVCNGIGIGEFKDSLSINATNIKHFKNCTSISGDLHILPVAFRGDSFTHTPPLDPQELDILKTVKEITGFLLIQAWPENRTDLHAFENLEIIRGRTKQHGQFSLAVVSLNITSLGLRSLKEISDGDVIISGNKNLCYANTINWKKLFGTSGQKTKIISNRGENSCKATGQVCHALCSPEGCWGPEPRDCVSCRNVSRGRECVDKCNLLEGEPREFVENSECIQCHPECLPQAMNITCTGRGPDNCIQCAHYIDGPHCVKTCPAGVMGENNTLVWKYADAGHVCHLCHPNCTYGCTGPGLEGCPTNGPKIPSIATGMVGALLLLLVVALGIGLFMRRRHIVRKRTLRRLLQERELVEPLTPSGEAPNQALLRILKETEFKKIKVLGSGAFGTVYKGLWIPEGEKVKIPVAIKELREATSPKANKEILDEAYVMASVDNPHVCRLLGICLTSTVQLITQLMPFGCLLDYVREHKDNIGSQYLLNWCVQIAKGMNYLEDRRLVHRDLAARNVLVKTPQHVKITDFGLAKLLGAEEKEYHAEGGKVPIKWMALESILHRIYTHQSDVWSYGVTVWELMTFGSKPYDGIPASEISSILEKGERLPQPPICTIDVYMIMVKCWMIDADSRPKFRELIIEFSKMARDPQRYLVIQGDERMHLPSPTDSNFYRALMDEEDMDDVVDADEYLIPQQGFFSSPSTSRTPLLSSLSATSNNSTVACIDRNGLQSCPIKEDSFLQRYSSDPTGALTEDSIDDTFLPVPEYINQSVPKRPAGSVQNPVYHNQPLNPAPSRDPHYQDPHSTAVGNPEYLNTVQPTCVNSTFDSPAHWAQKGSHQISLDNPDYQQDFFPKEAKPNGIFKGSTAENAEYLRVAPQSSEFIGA

IC50 (SK-Br3 (ATCC: HTB-30); Homo sapiens, SK-BR-3, 72 h)	IC50 [1]	IC50 (SW-620 (ATCC: CCL-227))	IC50 (A431 (ATCC: CRL-1555); Homo sapiens, A-431, 72 h)	Compound	IC50 (SK-Br3 (ATCC: HTB-30); Erb-B2 overexpressed SK-Br3, 72 hours, SRB)	IC50 ([1]; read-out: IC50 EGFR, Poly (Glu, Tyr) 4:1 and ATP, 1 hour room temperature, FP readout)	IC50 (A431 (ATCC: CRL-1555); EGFR overexpressed A431, 72 hours, SRB)
3 nM	3 nM	> 10000 nM	58 nM	C=CC(=O)NCCC(=O)Nc1ccc2ncnc(Nc3ccc(OCc4cccc(F)c4)c(Cl)c3)c2c1 [Example 22, N-(2-{4-[3-chloro-4-(3-fluoro-benzyloxy)-phenylamino]-quinazolin-6-ylcarbamoyl}-ethyl)-acrylamide]	–	–	–
2 nM	1 nM	–	9 nM	C=CC(=O)N[C@H](C)C(=O)Nc1cc2c(Nc3ccc(OCc4ccccn4)c(Cl)c3)ncnc2cc1OC [Example 189, (1R)—N-(1-{4-[3-chloro-4-(pyridin-2-ylmethoxy)-phenylamino]-7-methoxy-quinazolin-6-ylcarbamoyl}-ethyl)-acrylamide]	–	–	–
3 nM	4 nM	–	50 nM	C=CC(=O)NCCC(=O)Nc1cc2c(Nc3ccc(OCc4ccccn4)c(C)c3)ncnc2cc1F [Example 178, N-(2-{7-fluoro-4-[3-methyl-4-(pyridin-2-ylmethoxy)-phenylamino]-quinazolin-6-ylcarbamoyl}-ethyl)-acrylamide]	–	–	–
4 nM	2 nM	–	19 nM	C=CC(=O)N(C)CCC(=O)Nc1ccc2ncnc(Nc3ccc(OCc4cccc(F)c4)c(Cl)c3)c2c1 [Example 142-2, N-(2-{4-[3-chloro-4-(3-fluoro-benzyloxy)-phenylamino]-quinazolin-6-ylcarbamoyl}-ethyl)-N-methyl-acrylamide]	–	–	–
4 nM	2 nM	–	16 nM	C=CC(=O)NCC(=O)Nc1cc2c(Nc3ccc(OCc4ccccn4)c(Cl)c3)ncnc2cc1OCCOC [Example 218, N-({4-[3-chloro-4-(pyridin-2-ylmethoxy)-phenylamino]-7-(2-methoxyethoxy)-quinazolin-6-ylcarbamoyl}-methyl)-acrylamide]	–	–	–
–	–	–	–	CC#CC(=O)N1CCC[C@H]1C(=O)Nc1cc2c(Nc3ccc(OCc4ccccn4)c(Cl)c3)ncnc2cc1OC [Example 146, (2S)-1-(1-oxo-butyn-2-yl)-pyrrolidine-2-carboxylic acid {4-[3-chloro-4-(pyridin-2-ylmethoxy)-phenylamino]-7-methoxy-quinazolin-6-yl}-amide]	40 nM	4 nM	32 nM
151 nM	30 nM	–	948 nM	COCC(=O)NCCC(=O)Nc1ccc2ncnc(Nc3ccc(OCc4cccc(F)c4)c(Cl)c3)c2c1 [Example 20-2, N-{4-[3-chloro-4-(3-fluoro-benzyloxy)-phenylamino]-quinazolin-6-yl}-3-(2-methoxy-acetylamino)-propionamide]	–	–	–
3 nM	2 nM	–	11 nM	C=CC(=O)N[C@H](C)C(=O)Nc1cc2c(Nc3ccc(OCc4ccccn4)c(Cl)c3)ncnc2cc1OCCOC [Example 208, (1R)—N-(1-{4-[3-chloro-4-(pyridin-2-ylmethoxy)-phenylamino]-7-(2-methoxy-ethoxy)-quinazolin-6-ylcarbamoyl}-ethyl)-acrylamide]	–	–	–

— patent publication US8003658B2, “Quinazoline derivatives for inhibiting cancer cell growth and method for the preparation thereof” (Hanmi Holdings Co., Ltd., priority 2004, dated 2011)
